The record followed here is patent US20260201008A1, “SECRETIN-DERIVED GLP1R SELECTIVE AGONISTS” (GUBRA A/S, priority 2023, published 2026).

Data set [1] in a line: Turbidity of crude library peptides (absorbance at 600 nm). The class given is physicochemical. The settings on record: Physical stability of peptides. The method, boiled down:
(§1)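 Values reflect mean ThT emission (ex 450, em 480 nm) over 72 h at 40° C, read every 10 min after 5 min shaking at 700 rpm, plus a single initial absorbance at 600 nm for turbidity. Peptides were at 267 μM, pH 4.0 acetate or pH 7.0 phosphate (50 mM), with 4 μM ThT.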

The nature of data set [2]: Fibril formation of crude library peptides (Thioflavin T). The class given is physicochemical. Set-up: key: average ThT fluorescence emission at 480 nm (ex 450 nm), raw units. The settings on record: Physical stability of peptides. The method, boiled down:
as §1

The next data set deals with GLP1R (Homo sapiens, UniProt P43220). The experiment in a line: hGLP1R potency, cAMP accumulation in CHO-K1 cells stably overexpressing hGLP1R. In kind it is cell-based. Details: host or cells: CHO-K1. Particulars: for Selectivity: SCTR EC50/GLP1R EC50 ratio; for EC50: cAMP accumulation, CHO-K1 cells overexpressing hGLP1R, read-out: pEC50 hGLPR1 (converted). Put shortly: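 Potency reflects cAMP accumulation measured by time-resolved fluorescence energy transfer after a 30 min room-temperature stimulation in IBMX-containing (0.5 mM) DPBS with casein. Purified peptides were tested in duplicate over eleven threefold dilutions, and EC50 was obtained from sigmoid concentration-response fitting.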
Chain of GLP1R (P43220 24-463): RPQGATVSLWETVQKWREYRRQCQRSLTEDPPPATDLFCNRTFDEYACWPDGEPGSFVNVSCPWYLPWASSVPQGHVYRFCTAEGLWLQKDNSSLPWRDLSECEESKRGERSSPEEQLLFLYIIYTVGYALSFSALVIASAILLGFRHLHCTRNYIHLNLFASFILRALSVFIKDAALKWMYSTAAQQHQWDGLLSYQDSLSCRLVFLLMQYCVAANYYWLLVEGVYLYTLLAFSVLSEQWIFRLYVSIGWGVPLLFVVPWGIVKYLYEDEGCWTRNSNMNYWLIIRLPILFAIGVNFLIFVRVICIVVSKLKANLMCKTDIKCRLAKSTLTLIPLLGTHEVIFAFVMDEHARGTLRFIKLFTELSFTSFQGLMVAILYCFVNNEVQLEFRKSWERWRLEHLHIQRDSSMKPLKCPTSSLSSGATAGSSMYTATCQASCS
(In general: Changes in cAMP serve as a functional read-out for many G protein-coupled receptors.)

A further data set has as its target SCTR (Homo sapiens, UniProt P47872). The experiment in a line: hSCTR potency, cAMP accumulation in CHO-K1 cells stably overexpressing hSCTR. The class given is cell-based. Details: alternatively Euroscreen ES-712-AF; FAST-0161L; host or cells: CHO-K1. Particulars: cAMP accumulation, CHO-K1 cells overexpressing hSCTR; read-out: pEC50 hSCTR (converted). Put shortly: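 Potency reflects cAMP accumulation after 30 min agonist exposure at room temperature in hSCTR-expressing CHO-K1 cells, with 0.5 mM IBMX present to block phosphodiesterase. EC50 was derived by nonlinear regression.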

Numbered stars: 1 amine (or outer) side, 2 acyl side, 3 side chain; on linkers, the order of the positions; unused ones are H or OH. Square brackets hold non-standard residues; d marks the D form. Side chains are listed from the residue outwards. Peptide text beside a SMILES is read from it. * marks the point of attachment. C20 diacid = O=C(O)CCCCCCCCCCCCCCCCCCC(=O)*; γGlu = O=C(O)[C@H](CCC(=O)[*:2])N[*:1]; AEEA = NCCOCCOCC(=O)O; Aib = CC(C)(N)C(=O)O

Chain of SCTR (P47872 23-440): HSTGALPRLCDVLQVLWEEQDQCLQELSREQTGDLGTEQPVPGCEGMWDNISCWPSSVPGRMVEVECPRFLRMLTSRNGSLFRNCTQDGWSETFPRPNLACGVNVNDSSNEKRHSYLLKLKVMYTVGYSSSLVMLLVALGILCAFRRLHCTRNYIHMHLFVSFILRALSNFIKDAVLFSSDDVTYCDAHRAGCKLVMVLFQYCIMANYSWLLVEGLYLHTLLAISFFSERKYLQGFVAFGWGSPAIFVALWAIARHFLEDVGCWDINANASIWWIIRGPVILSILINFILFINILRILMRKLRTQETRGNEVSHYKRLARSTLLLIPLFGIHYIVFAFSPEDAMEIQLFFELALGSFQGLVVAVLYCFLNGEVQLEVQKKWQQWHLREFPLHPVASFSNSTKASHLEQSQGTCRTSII

For the compound `CC(C)C[C@H](NC(=O)[C@H](Cc1ccccc1)NC(=O)[C@H](CCCNC(=N)N)NC(=O)[C@H](CCC(N)=O)NC(=O)[C@@H](NC(=O)[C@H](C)NC(=O)[C@H](C)NC(=O)C(C)(C)NC(=O)[C@H](CCC(=O)O)NC(=O)[C@H](CCCCNC(=O)COCCOCCNC(=O)COCCOCCNC(=O)CC[C@H](NC(=O)CCCCCCCCCCCCCCCCCCC(=O)O)C(=O)O)NC(=O)[C@H](CC(C)C)NC(=O)[C@H](Cc1ccc(O)cc1)NC(=O)[C@H](CO)NC(=O)[C@@H](NC(=O)[C@H](CC(=O)O)NC(=O)[C@H](CO)NC(=O)[C@@H](NC(=O)[C@H](Cc1ccccc1)NC(=O)[C@@H](NC(=O)CNC(=O)[C@H](CCC(=O)O)NC(=O)C(C)(C)NC(=O)[C@@H](N)Cc1c[nH]cn1)[C@@H](C)O)[C@@H](C)O)C(C)C)[C@@H](C)O)C(=O)N[C@@H](CCC(=O)O)C(=O)N[C@@H](Cc1c[nH]cn1)C(=O)N[C@@H](CC(C)C)C(=O)N[C@H](C(N)=O)C(C)C` [compound 48] (H-H[Aib]EGTFTSDVSYLK([AEEA-AEEA-γGlu-C20 diacid])E[Aib]AATQRFLEHLV-NH2), in data set [1], the “Turbidity (pH 7)” value was 0.08. In data set [2], this compound yielded a Fibril formation of 16290. Moreover, at GLP1R, the Selectivity is on record as 5236. Moreover, the EC50 is 0.0251 nM at GLP1R and 126 nM at SCTR.

For `CC(C)C[C@H](NC(=O)[C@H](Cc1ccccc1)NC(=O)[C@H](CCCNC(=N)N)NC(=O)[C@H](CCC(N)=O)NC(=O)[C@@H](NC(=O)[C@H](C)NC(=O)[C@H](C)NC(=O)C(C)(C)NC(=O)[C@H](CCC(=O)O)NC(=O)[C@H](CCCCNC(=O)COCCOCCNC(=O)COCCOCCNC(=O)CC[C@H](NC(=O)CCCCCCCCCCCCCCCCCCC(=O)O)C(=O)O)NC(=O)[C@H](CC(C)C)NC(=O)[C@@H](NC(=O)[C@H](CO)NC(=O)[C@@H](NC(=O)[C@H](CC(=O)O)NC(=O)[C@H](CO)NC(=O)[C@@H](NC(=O)[C@H](Cc1ccccc1)NC(=O)[C@@H](NC(=O)CNC(=O)[C@H](CCC(=O)O)NC(=O)C(C)(C)NC(=O)[C@@H](N)Cc1c[nH]cn1)[C@@H](C)O)[C@@H](C)O)C(C)C)C(C)C)[C@@H](C)O)C(=O)N[C@@H](CCC(=O)O)C(=O)N[C@@H](Cc1c[nH]cn1)C(=O)N[C@@H](CC(C)C)C(=O)N[C@H](C(N)=O)C(C)C` [compound 49] (H-H[Aib]EGTFTSDVSVLK([AEEA-AEEA-γGlu-C20 diacid])E[Aib]AATQRFLEHLV-NH2), the “Turbidity (pH 7)” value in data set [1] came to 0.08. The compound also displayed a Fibril formation in data set [2] of 11371. Further, at GLP1R, the Selectivity is 5429. The EC50 at GLP1R was 0.02 nM; at SCTR, 126 nM.

Regarding `CC(C)C[C@H](NC(=O)[C@H](Cc1ccccc1)NC(=O)[C@H](CCCNC(=N)N)NC(=O)[C@H](CCC(N)=O)NC(=O)[C@@H](NC(=O)[C@H](C)NC(=O)[C@H](C)NC(=O)C(C)(C)NC(=O)[C@H](CCC(=O)O)NC(=O)[C@H](CCCCNC(=O)COCCOCCNC(=O)COCCOCCNC(=O)CC[C@H](NC(=O)CCCCCCCCCCCCCCCCCCC(=O)O)C(=O)O)NC(=O)[C@H](CC(C)C)NC(=O)[C@H](CCCNC(=N)N)NC(=O)[C@H](CO)NC(=O)[C@@H](NC(=O)[C@H](CC(=O)O)NC(=O)[C@H](CO)NC(=O)[C@@H](NC(=O)[C@H](Cc1ccccc1)NC(=O)[C@@H](NC(=O)CNC(=O)[C@H](CCC(=O)O)NC(=O)C(C)(C)NC(=O)[C@@H](N)Cc1c[nH]cn1)[C@@H](C)O)[C@@H](C)O)C(C)C)[C@@H](C)O)C(=O)N[C@@H](CCC(=O)O)C(=O)N[C@@H](Cc1c[nH]cn1)C(=O)N[C@@H](CC(C)C)C(=O)N[C@H](C(N)=O)C(C)C` [compound 50] (H-H[Aib]EGTFTSDVSRLK([AEEA-AEEA-γGlu-C20 diacid])E[Aib]AATQRFLEHLV-NH2), the “Turbidity (pH 7)” value in data set [1] is reported as 0.09. Besides, the Fibril formation in data set [2] was 12284. Besides, at GLP1R, the Selectivity is on record as 3425 and the EC50 was 0.0158 nM. The EC50 on SCTR was 50.1 nM.

With `CC(C)C[C@H](NC(=O)[C@H](Cc1ccccc1)NC(=O)[C@H](CCCNC(=N)N)NC(=O)[C@H](CCC(N)=O)NC(=O)[C@H](CCC(=O)O)NC(=O)[C@H](C)NC(=O)[C@H](C)NC(=O)[C@H](CCC(=O)O)NC(=O)[C@H](CCC(=O)O)NC(=O)[C@H](CCCCNC(=O)COCCOCCNC(=O)COCCOCCNC(=O)CC[C@H](NC(=O)CCCCCCCCCCCCCCCCCCC(=O)O)C(=O)O)NC(=O)[C@H](CC(C)C)NC(=O)[C@H](CCC(=O)O)NC(=O)[C@H](CO)NC(=O)[C@@H](NC(=O)[C@H](CC(=O)O)NC(=O)[C@H](CO)NC(=O)[C@@H](NC(=O)[C@H](Cc1ccccc1)NC(=O)[C@@H](NC(=O)CNC(=O)[C@H](CCC(=O)O)NC(=O)C(C)(C)NC(=O)[C@@H](N)Cc1c[nH]cn1)[C@@H](C)O)[C@@H](C)O)C(C)C)C(=O)N[C@@H](CCC(=O)O)C(=O)N[C@@H](Cc1c[nH]cn1)C(=O)N[C@@H](CC(C)C)C(=O)N[C@H](C(N)=O)C(C)C` [compound 51] (H-H[Aib]EGTFTSDVSELK([AEEA-AEEA-γGlu-C20 diacid])EEAAEQRFLEHLV-NH2), the “Turbidity (pH 7)” value in data set [1] came out at 0.09. In addition, the Fibril formation in data set [2] amounted to 8475. Besides, at GLP1R, the Selectivity is listed as 63009 and the EC50 is 0.0316 nM. Also, the EC50 at SCTR was 2000 nM.

As for `CC(C)C[C@H](NC(=O)[C@H](Cc1ccccc1)NC(=O)[C@H](CCCNC(=N)N)NC(=O)[C@H](CCC(N)=O)NC(=O)[C@H](CO)NC(=O)[C@H](C)NC(=O)[C@H](C)NC(=O)[C@H](Cc1ccccc1)NC(=O)[C@H](CCC(=O)O)NC(=O)[C@H](CCCCNC(=O)COCCOCCNC(=O)COCCOCCNC(=O)CC[C@H](NC(=O)CCCCCCCCCCCCCCCCCCC(=O)O)C(=O)O)NC(=O)[C@H](CC(C)C)NC(=O)[C@H](CCCNC(=N)N)NC(=O)[C@H](CO)NC(=O)[C@@H](NC(=O)[C@H](CC(=O)O)NC(=O)[C@H](CO)NC(=O)[C@@H](NC(=O)[C@H](Cc1ccccc1)NC(=O)[C@@H](NC(=O)CNC(=O)[C@H](CCC(=O)O)NC(=O)C(C)(C)NC(=O)[C@@H](N)Cc1c[nH]cn1)[C@@H](C)O)[C@@H](C)O)C(C)C)C(=O)N[C@@H](CCC(=O)O)C(=O)N[C@@H](Cc1c[nH]cn1)C(=O)N[C@@H](CC(C)C)C(=O)N[C@H](C(N)=O)C(C)C` [compound 52] (H-H[Aib]EGTFTSDVSRLK([AEEA-AEEA-γGlu-C20 diacid])EFAASQRFLEHLV-NH2), the “Turbidity (pH 7)” value in data set [1] stood at 0.08. The same compound gave a Fibril formation in data set [2] of 241858. Also, at GLP1R, the Selectivity was found to be 3341 and the EC50 is 0.126 nM. Also, the EC50 on SCTR was 398 nM.

With `CC(C)C[C@H](NC(=O)[C@H](Cc1ccccc1)NC(=O)[C@H](CCCNC(=N)N)NC(=O)[C@H](CCC(N)=O)NC(=O)[C@@H](NC(=O)[C@H](C)NC(=O)[C@H](C)NC(=O)[C@H](CCC(=O)O)NC(=O)[C@H](CCC(=O)O)NC(=O)[C@H](CCCCNC(=O)COCCOCCNC(=O)COCCOCCNC(=O)CC[C@H](NC(=O)CCCCCCCCCCCCCCCCCCC(=O)O)C(=O)O)NC(=O)[C@H](CC(C)C)NC(=O)[C@@H](NC(=O)[C@H](CO)NC(=O)[C@@H](NC(=O)[C@H](CC(=O)O)NC(=O)[C@H](CO)NC(=O)[C@@H](NC(=O)[C@H](Cc1ccccc1)NC(=O)[C@@H](NC(=O)CNC(=O)[C@H](CCC(=O)O)NC(=O)C(C)(C)NC(=O)[C@@H](N)Cc1c[nH]cn1)[C@@H](C)O)[C@@H](C)O)C(C)C)C(C)C)[C@@H](C)O)C(=O)N[C@@H](CCC(=O)O)C(=O)N[C@@H](Cc1c[nH]cn1)C(=O)N[C@@H](CC(C)C)C(=O)N[C@H](C(N)=O)C(C)C` [compound 53] (H-H[Aib]EGTFTSDVSVLK([AEEA-AEEA-γGlu-C20 diacid])EEAATQRFLEHLV-NH2), in data set [1], the “Turbidity (pH 7)” value is 0.08. The Fibril formation in data set [2] is reported as 5164. Besides, on GLP1R, the Selectivity amounted to 10988. The EC50 at GLP1R was 0.00501 nM; on SCTR it was 63.1 nM.

Take `CC(C)C[C@H](NC(=O)[C@H](Cc1ccccc1)NC(=O)[C@H](CCCNC(=N)N)NC(=O)[C@H](CCC(N)=O)NC(=O)[C@@H](NC(=O)[C@H](C)NC(=O)[C@H](C)NC(=O)[C@@H](NC(=O)[C@H](CCC(=O)O)NC(=O)[C@H](CCCCNC(=O)COCCOCCNC(=O)COCCOCCNC(=O)CC[C@H](NC(=O)CCCCCCCCCCCCCCCCCCC(=O)O)C(=O)O)NC(=O)[C@H](CC(C)C)NC(=O)[C@H](CCC(=O)O)NC(=O)[C@H](CO)NC(=O)[C@@H](NC(=O)[C@H](CC(=O)O)NC(=O)[C@H](CO)NC(=O)[C@@H](NC(=O)[C@H](Cc1ccccc1)NC(=O)[C@@H](NC(=O)CNC(=O)[C@H](CCC(=O)O)NC(=O)C(C)(C)NC(=O)[C@@H](N)Cc1c[nH]cn1)[C@@H](C)O)[C@@H](C)O)C(C)C)[C@@H](C)O)[C@@H](C)O)C(=O)N[C@@H](CCC(=O)O)C(=O)N[C@@H](Cc1c[nH]cn1)C(=O)N[C@@H](CC(C)C)C(=O)N[C@H](C(N)=O)C(C)C` [compound 54] (H-H[Aib]EGTFTSDVSELK([AEEA-AEEA-γGlu-C20 diacid])ETAATQRFLEHLV-NH2): the “Turbidity (pH 7)” value in data set [1] turned out to be 0.09. In data set [2], this compound showed a Fibril formation of 7756. Further, on GLP1R, the Selectivity is on record as 11020 and the EC50 is 0.0126 nM. Further, at SCTR, the EC50 is 126 nM.
